{"source": "patent US5914242A", "about": "“Method for diminishing myocardial infarction using protein phosphatase inhibitors” (priority 1997, dated 1999)", "key": {"[1]": {"system": "a variety of protein kinases", "assay": "Effect on protein kinases", "assay_type": "biochemical"}, "[2]": {"system": "isolated rabbit hearts", "assay": "Controlled coronary occlusion in isolated perfused (Langendorff) rabbit hearts, infarct size as % of risk zone", "conditions": "for infarct size, % of the risk zone: control 33%", "method": "New Zealand white rabbits were anesthetized with intravenous sodium pentobarbital (30 mg/kg). The trachea was intubated and mechanical ventilation was achieved. After a left thoracotomy, a snare was passed around the coronary artery and the hearts were excised quickly, mounted on a Langendorff apparatus and perfused at 75 mm Hg pressure with non-recirculating Krebs buffer containing 118.5 mM NaCl, 4.7 mM KCl, 1.2 mM MgSO4, 1.2 mM KH2 PO4, 24.8 mM NaHCO3, 2.5 mM CaCl2, and 10 mM glucose. The Krebs buffer was gassed with 95% O2 /5% CO2 resulting in a pH of 7.4-7.5. The temperature of the perfusate was maintained at 37° C.\nA fluid-filled latex balloon connected to a transducer with PE240 tubing was inserted into the left ventricle. The balloon volume was adjusted to set the left ventricular diastolic pressure equal to 5-10 mm Hg at the beginning of the experiment. Total coronary artery flow was measured by timed collection of perfusate dripping from the heart with a graduated cylinder.\nThe coronary artery was occluded for 30 minutes and reperfused for 2 hours. Fostriecin was mixed with oxygenated perfusate in a separate reservoir to a concentration of 1 μM. Treatment was begun by opening the line from the drug-laden reservoir and closing the line from the reservoir containing pure buffer. After 2 hours of reperfusion, the coronary artery was re-occluded, and 1-10 μm zinc cadmium sulfide fluorescent particles (Duke Scientific, Palo Alto, Calif.) were infused into the perfusate to demarcate the risk zone. The heart was removed, weighed, frozen, and cut into 2 mm thick slices. The slices were thawed and stained by incubation for 20 minutes at 37° C. in 1% triphenyltetrazolium chloride (TTC) in pH 7.4 buffer. The areas of infarct (TTC negative) and risk zone (non-fluorescent under ultraviolet light) were determined by planimetry. Infarct and risk zone volumes were calculated by multiplying each area by the slice thickness and summing the products. Infarct size for each heart was expressed as a percentage of the risk zone infarcted. In an untreated rabbit heart approximately 33% of the ischemic tissue infarcts in this model.\nEmploying the well-characterized rabbit model described herein in Example 1, a controlled coronary occlusion was employed to induce reproducibly myocardial infarctions in isolated hearts. Defining the risk zone as the tissue normally supplied with oxygenated blood by the coronary artery before it is occluded, a 30 minute coronary occlusion produces an infarction that averages 33% of the risk zone (see data for control rabbits; FIG. 1). When the isolated hearts were treated with 1 μM fostriecin administered 15 minutes prior to the onset of ischemia and present during the 30 minute ischemic period, a significant decrease in infarct size to 9% of the risk zone was obtained (FIG. 1). This level of protection is equivalent to that seen in ischemic preconditioning (see Cohen M. V., et al., Cardiol. Rev. 3(3):137-49 (1995)), and represents a substantial decrease in the amount of myocardial tissue damaged.\nSince the onset of a myocardial infarction usually cannot be predicted, a compound that provides protection when administered after the onset of ischemia is clinically far more useful than a compound that is effective only if administered before the coronary occlusion. […] The addition of 10 μM fostriecin 10 minutes after the onset of ischemia decreased infarction size to 19% of the risk zone. […]"}, "[3]": {"system": "isolated myocytes", "assay": "Isolated myocyte simulated ischemia, osmotic fragility (trypan blue) index", "assay_type": "cell-based, rabbit", "conditions": "10 μM fostriecin added at onset of ischemia, 120 min; untreated cells 14.3", "method": "Isolated Myocytes: Rabbit hearts were mounted on a perfusion apparatus as described above and perfused with \"high potassium/low calcium\" perfusion buffer containing 125 mM NaCl, 30 mM KCl, 25 mM NaHCO3, 1.2 mM KH2 PO4, 1 mg/ml BSA, 1.2 mM MgCl2, 11 mM glucose, 0.68 mM 1-glutamine, and a complete amino acid solution (pH 7.4) for 5 minutes. Collagenase (Worthington Biochemical, Freehold, N.J.) was added at a concentration of 1.25 mg/ml and the heart was perfused for 45-60 minutes until it became soft. The heart was removed from the apparatus and minced in 5 mls of perfusion buffer containing 0.1% w/v BSA. […] Cell counts and viability were assessed by removing 10 μl aliquots, mixing with an equal volume of Tyrode's solution containing 1% trypan blue, and counting within 3-5 minutes by light microscopy. […]\nTo simulate ischemia, the suspension was divided into 4-6 conical Eppendorf tubes and each tube was spun lightly to form a 0.2-0.5 ml pellet of packed cells. […] Within 5 minutes, at least 300 cells were examined with an inverted stage microscope from multiple areas of the slide, and the numbers of rounded and rod-shaped cells and those stained with trypan blue recorded. […]\nThe percentage of stained (dead) cells was determined, and a plot of % dead cells vs. time was constructed. An index of non-survival was calculated as the area under the curve after 2 hours and presented as %-hr. […]"}, "[4]": {"system": "acid phosphatase", "assay": "Effect on acid phosphatase", "assay_type": "biochemical"}}, "data": [{"smiles": "CC(O)(/C=C/C1CC=CC(=O)O1)C(CC(O)\\C=C/C=C\\C=C\\CO)OP(=O)(O)O", "note": "(centres unmarked) [fostriecin]", "values": [{"measurement": "effect on a variety of protein kinases", "setting": "[1]", "value": "no effect"}, {"measurement": "infarct size, % of the risk zone", "setting": "[2]; 1 μM fostriecin from 15 minutes prior to ischemia and during 30-minute coronary occlusion", "value": "9 % of the risk zone"}, {"measurement": "infarct size, % of the risk zone", "setting": "[2]; 10 μM fostriecin added 10 minutes after onset of 30-minute ischemia", "value": "19 % of the risk zone"}, {"measurement": "inhibition at 10 µM", "setting": "[2]; Oryctolagus cuniculus, 10 min, 10 μM fostriecin added 10 minutes after onset of ischemia, read-out: infarction smaller than in untreated hearts", "value": 43, "unit": "%"}, {"measurement": "hemodynamic effects", "setting": "[2]; isolated rabbit heart perfused with 1 μM fostriecin", "value": "No hemodynamic effects were observed"}, {"measurement": "concentration found to provide protection", "setting": "[2]; perfused rabbit hearts", "value": "1 to 10", "unit": "µM"}, {"measurement": "cell fragility index, area under the % trypan blue-positive cells vs time curve", "setting": "[3]", "value": 10.6, "unit": "%.cndot.hr"}, {"measurement": "effect on acid phosphatase", "setting": "[4]", "value": "no effect"}]}]}
